This passage reports IC50 and Kd results from patent publication US20240217951A1, “PCSK9 INHIBITORS AND METHODS OF USE THEREOF” (AstraZeneca AB, priority 2022, published 2024).

Usually IC50 stands for the point on the concentration scale where inhibition reaches its midpoint. One may read the Kd as the free concentration of one partner at which half of the binding sites on the other are occupied at equilibrium, for simple one-to-one binding.

Test [1] deals with GSK3β (Glycogen synthase kinase-3 beta) (Homo sapiens, UniProt P49841). Briefly: Assay 6 - GSK3β assay (ThermoFisher Z-Lyte). Format: biochemical. The settings on record: geometric mean; ATP Conc: 10 μM; read-out: Assay 6 (GSK3β FRET-Z-Lyte CR) GMean IC50 (μM) ATP Conc: 10. In a few lines: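 Z-Lyte fluorescence kinase assay with 0.22-0.92 ng GSK3β and 2 μM Ser/Thr 09 peptide in 50 mM HEPES pH 7.5, 10 mM MgCl2, 1 mM EGTA, 0.01% BRIJ-35. Kinase reaction 60 min at room temperature, then 60 min development. 10-point 3-fold titration from 10 μM in 1% DMSO, fitted to a sigmoidal dose-response curve.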
Chain of GSK3β (Glycogen synthase kinase-3 beta) (P49841 whole entry): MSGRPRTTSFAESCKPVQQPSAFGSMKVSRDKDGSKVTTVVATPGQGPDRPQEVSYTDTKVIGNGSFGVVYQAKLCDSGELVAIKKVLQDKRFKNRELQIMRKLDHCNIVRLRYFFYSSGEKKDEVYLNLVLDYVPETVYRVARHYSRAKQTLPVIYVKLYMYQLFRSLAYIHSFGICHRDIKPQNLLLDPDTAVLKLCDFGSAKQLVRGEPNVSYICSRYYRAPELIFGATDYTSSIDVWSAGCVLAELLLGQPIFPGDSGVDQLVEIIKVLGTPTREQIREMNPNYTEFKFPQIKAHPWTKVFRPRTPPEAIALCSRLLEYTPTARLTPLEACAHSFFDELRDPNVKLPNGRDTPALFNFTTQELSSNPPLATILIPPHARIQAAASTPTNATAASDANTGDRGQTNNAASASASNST

Another test deals with T1, human PCSK9 (Homo sapiens, UniProt Q8NBP7).
T1 construct: biotinylated human PCSK9 (31-692)-Avi-His6; His6 (C)
T1 sequence (Q8NBP7 31-692): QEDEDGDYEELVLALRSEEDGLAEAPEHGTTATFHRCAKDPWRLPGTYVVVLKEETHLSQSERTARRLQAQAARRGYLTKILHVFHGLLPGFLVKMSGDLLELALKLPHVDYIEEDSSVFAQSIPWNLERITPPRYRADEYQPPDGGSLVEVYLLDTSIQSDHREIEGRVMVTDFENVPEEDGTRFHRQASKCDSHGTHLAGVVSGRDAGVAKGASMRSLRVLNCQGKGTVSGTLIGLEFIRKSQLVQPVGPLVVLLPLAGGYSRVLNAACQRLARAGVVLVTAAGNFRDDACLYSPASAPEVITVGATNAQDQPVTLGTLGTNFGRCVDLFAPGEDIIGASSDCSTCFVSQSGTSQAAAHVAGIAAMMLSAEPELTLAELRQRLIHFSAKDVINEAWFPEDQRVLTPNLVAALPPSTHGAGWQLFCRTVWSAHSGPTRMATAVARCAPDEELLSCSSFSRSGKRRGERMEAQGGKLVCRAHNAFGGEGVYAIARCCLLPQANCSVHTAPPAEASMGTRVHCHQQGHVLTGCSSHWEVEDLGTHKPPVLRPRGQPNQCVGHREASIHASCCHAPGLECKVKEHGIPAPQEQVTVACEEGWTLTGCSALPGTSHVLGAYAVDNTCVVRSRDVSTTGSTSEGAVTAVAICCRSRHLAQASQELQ
Briefly: Assay 2 - Biophysical human PCSK9 assay (SPR, Biacore). Format: binding. As to conditions: geometric mean; SPR at 30° C; read-out: Assay 2 (PCSK9 BIAcore DBA CR) GMean Kd. As for the experimental part:
Assay 2—Biophysical Human PCSK9 Assay
The SPR binding experiments were performed on a Biacore S200 optical biosensor unit at 30° C. A Series S Sensor Chip SA that is designed to bind biotinylated molecules for interaction analysis in Biacore systems was equilibrated at room temperature prior to use. The running buffer for protein tethering and subsequent ligand binding experiments was 10 mM HEPES pH 7.4, 150 mM NaCl, 0.05% (v/v) Tween 20 pH 7.4.
For the surface tethering of PCSK9, biotinylated human PCSK9 (31-692)-Avi-His6 at a concentration of 0.5 mg/mL was used. Prior to the surface tethering, the surface was exposed to a solution of 50 mM NaOH, 500 mM NaCl via 3 consecutive injections of this solution with a contact time of 60 s and a flowrate of 10 μL min^−1 to remove non-conjugated streptavidin. The PCSK9 protein was diluted to a concentration of 20 μg/mL using running buffer and injected with a contact time of 180-300 s and a flowrate of 10 μL min^−1 over a single flow channel (typically flow channel 2 or flow channel 4) with the aim to achieve protein capture levels of >5000 response units (RU). Remaining biotin binding sites were blocked via 2 consecutive injections of a 10 μM D-biotin solution in running buffer with a contact time of 60 s and a flowrate of 10 μL min^−1 over all flow-channels. Flow-channels 1 and 3 typically served as a reference surface throughout the subsequent binding experiments.
The binding experiments were all performed at a flow rate of 30 PL min^−1 and by employing the method of single-cycle kinetics. This approach involves the sequential injection of a compound concentration series without regeneration steps. A contact time between 90-150 s was selected, which was followed by a 40 min dissociation phase to allow for a proper estimation of the dissociation rate constant. Test compounds were delivered in DMSO at a concentration of 10 mM and a digital dispenser HP D300 was used to set up the compound concentration series using 6 concentrations. The tested concentrations have been 30, 100, 300, 1000, 3000 and 10000 nM. Prior to injecting any compound, the surfaces were equilibrated by injecting running buffer over them in three separate pulses. The data collection rate was set to 10 Hz.
The raw sensorgrams of the compound injections were first subjected to reference subtraction (subtracting the signal from flow channel 1 and/or 3 from the signal from channels 2 and/or 4 respectively) and then blank subtraction (subtracting the signal from injecting DMSO controls from the reference subtracted data). The resulting double-referenced sensorgrams were then fitted using a 1:1 binding interaction model using the manufactures software package to extract kinetic- and affinity data. Active compounds have been defined by creating a detectable binding signal at the highest compound concentration ([…]) of 3 RUs. Kinetic- and affinity data on active compounds are only provided for those compounds where the binding signal at the highest compound concentration ([…]) is 50% of the theoretical maximum binding signal for a 1:1 binding interaction (Rmax, typically between 15-20 RUs) in order to enable a proper fitting of the data.
(SPR reads the build-up and loss of mass on a sensor chip optically.)

For the compound `Cc1cccn(-c2ccc(N[C@H]3CC[C@H](Nc4cnc(Cl)cn4)C3)nc2)c1=O` [Example 24, 6′-(((1S,3S)-3-((5-Chloropyrazin-2-yl)amino)cyclopentyl)amino)-3-methyl-2H-[1,3′-bipyridin]-2-one], the IC50 in test [1] was more than 10 µM. At human PCSK9, the Kd was 4 nM.
The matching figures for `Cn1c(=O)n(-c2ccc(N[C@H]3CC[C@H](Nc4cnc(Cl)cn4)C3)nc2)c2ccccc21` [Example 27, 1-(6-(((1S,3S)-3-((5-Chloropyrazin-2-yl)amino)cyclopentyl)amino)pyridin-3-yl)-3-methyl-1,3-dihydro-2H-benzo[d]imidazol-2-one]: more than 10 µM and 3.1 nM.
For `O=c1ccc(-c2ccc(F)cc2)cn1-c1ccc(N[C@H]2CC[C@H](Nc3cnc(Cl)cn3)C2)nc1` [Example 32, 6′-(((1S,3S)-3-((5-Chloropyrazin-2-yl)amino)cyclopentyl)amino)-5-(4-fluorophenyl)-2H-[1,3′-bipyridin]-2-one], in test [1], the IC50 is more than 10 µM. The Kd on human PCSK9 came out at 20 nM.
For `O=C(O)c1ccc(=O)n(-c2ccc(N[C@H]3CC[C@H](Nc4cnc(Cl)cn4)C3)nc2)c1` [Example 33, 6′-(((1S,3S)-3-((5-Chloropyrazin-2-yl)amino)cyclopentyl)amino)-2-oxo-2H-[1,3′-bipyridine]-5-carboxylic acid], in that order: more than 10 µM and 13 nM.
The matching figures for `O=c1ccc2ccccc2n1-c1ccc(N[C@H]2CC[C@H](Nc3cnc(Cl)cn3)C2)nc1` [Example 35, 1-(6-(((1S,3S)-3-((5-Chloropyrazin-2-yl)amino)cyclopentyl)amino)pyridin-3-yl)quinolin-2 (1H)-one]: more than 10 µM and 3 nM.
The matching figures for `COc1cccn(-c2ccc(N[C@H]3CC[C@H](Nc4cnc(C)cn4)C3)nc2)c1=O` [Example 36, 3-Methoxy-6′-(((1S,3S)-3-((5-methylpyrazin-2-yl)amino)cyclopentyl)amino)-2H-[1,3′-bipyridin]-2-one]: more than 10 µM and 5.3 nM.
For `Cc1cnc(N[C@H]2CC[C@H](Nc3ccc(-n4c(=O)ccc5cccnc54)cn3)C2)cn1` [Example 37, 1-(6-(((1S,3S)-3-((5-Methylpyrazin-2-yl)amino)cyclopentyl)amino)pyridin-3-yl)-1,8-naphthyridin-2(1 H)-one], the half-inhibitory concentration (IC50) in test [1] was more than 10 µM. The Kd at human PCSK9 amounted to 5.5 nM.
For `Cc1cnc(N[C@H]2CC[C@H](Nc3ccc(-n4c(=O)n(C)c5cccnc54)cn3)C2)cn1` [Example 42, 1-Methyl-3-(6-(((1S,3S)-3-((5-methylpyrazin-2-yl)amino)cyclopentyl)amino)pyridin-3-yl)-1,3-dihydro-2H-imidazo[4,5-b]pyridin-2-one], in that order: more than 10 µM and 5 nM.
For `Cc1cnc(N[C@H]2CC[C@H](Nc3ccc(-n4cccc(C)c4=O)cn3)C2)cn1` [Example 44, 3-Methyl-6′-(((1S,3S)-3-((5-methylpyrazin-2-yl)amino)cyclopentyl)amino)-2H-[1,3′-bipyridin]-2-one], in test [1], the IC50 was more than 10 µM. Further, at human PCSK9, the Kd was 4.5 nM.
`Cc1cnc(N[C@H]2CC[C@H](Nc3ccc(-n4c(=O)n(C)c5ccccc54)cn3)C2)cn1` [Example 45, 1-Methyl-3-(6-(((1S,3S)-3-((5-methylpyrazin-2-yl)amino)cyclopentyl)amino)pyridin-3-yl)-1,3-dihydro-2H-benzo[d]imidazol-2-one]: in test [1], the IC50 was more than 10 µM. Besides, the Kd at human PCSK9 stood at 1.5 nM.
Regarding `Cc1cnc(N[C@H]2CC[C@H](Nc3ccc(-n4c(=O)[nH]c5ccccc54)cn3)C2)cn1` [Example 46, 1-(6-(((1S,3S)-3-((5-Methylpyrazin-2-yl)amino)cyclopentyl)amino)pyridin-3-yl)-1,3-dihydro-2H-benzo[d]imidazol-2-one], in test [1], the IC50 was more than 10 µM. For the same compound, the Kd at human PCSK9 stood at 4.7 nM.
Turning to `Cc1cnc(N[C@H]2CC[C@H](Nc3ccc(-n4cccc(Cl)c4=O)cn3)C2)cn1` [Example 47, 3-Chloro-6′-(((1S,3S)-3-((5-methylpyrazin-2-yl)amino)cyclopentyl)amino)-2H-[1,3′-bipyridin]-2-one], the 50% inhibitory concentration (IC50) in test [1] is more than 10 µM. The Kd at human PCSK9 amounted to 1.9 nM.
As for `Cn1c(=O)n(-c2ccc(N[C@H]3CC[C@H](Nc4cnc(OC(F)F)cn4)C3)nc2)c2ccccc21` [Example 82, 1-(6-(((1S,3S)-3-((5-(Difluoromethoxy)pyrazin-2-yl)amino)cyclopentyl)amino)pyridin-3-yl)-3-methyl-1,3-dihydro-2H-benzo[d]imidazol-2-one], the half-inhibitory concentration (IC50) in test [1] was more than 10 µM. The equilibrium dissociation constant (Kd) on human PCSK9 turned out to be 4.1 nM.
For `COc1cccn(-c2ccc(N[C@H]3CC[C@H](Nc4cnc(OC(F)F)cn4)C3)nc2)c1=O` [Example 94, 6′-(((1S,3S)-3-((5-(Difluoromethoxy)pyrazin-2-yl)amino)cyclopentyl)amino)-3-methoxy-2H-[1,3′-bipyridin]-2-one], in that order: more than 10 µM and 12 nM.
For `Cc1cnc(N[C@H]2CC[C@H](Nc3ccc(-n4cccc(C#N)c4=O)cn3)C2)cn1` [Example 103, 6′-(((1S,3S)-3-((5-Methylpyrazin-2-yl)amino)cyclopentyl)amino)-2-oxo-2H-[1,3′-bipyridine]-3-carbonitrile], in test [1], the IC50 was more than 10 µM. The dissociation constant (Kd) on human PCSK9 was 4.7 nM.
The matching figures for `COc1cccn(-c2ccc(N[C@H]3CC[C@H](Nc4cnc(C5CC5)cn4)C3)nc2)c1=O` [Example 106, 6′-(((1S,3S)-3-((5-Cyclopropylpyrazin-2-yl)amino)cyclopentyl)amino)-3-methoxy-2H-[1,3′-bipyridin]-2-one]: more than 10 µM and 3 nM.
As to `COc1ccnn(-c2ccc(N[C@H]3CC[C@H](Nc4cnc(C)cn4)C3)nc2)c1=O` [Example 226, 4-Methoxy-2-(6-(((1S,3S)-3-((5-methylpyrazin-2-yl)amino)cyclopentyl)amino)pyridin-3-yl)pyridazin-3 (2H)-one], the IC50 in test [1] was more than 10 µM. Moreover, the Kd at human PCSK9 came to 5.6 nM.
